Data as given in BindingDB's records for PubMed 40136287 (CSIR-Institute of Microbial Technology).

Target: Metallo-beta-lactamase type 2 (Klebsiella pneumoniae, UniProt C7C422)
Assay: Inhibition of NDM1 (unknown origin)

Chain of Metallo-beta-lactamase type 2 (C7C422 whole entry): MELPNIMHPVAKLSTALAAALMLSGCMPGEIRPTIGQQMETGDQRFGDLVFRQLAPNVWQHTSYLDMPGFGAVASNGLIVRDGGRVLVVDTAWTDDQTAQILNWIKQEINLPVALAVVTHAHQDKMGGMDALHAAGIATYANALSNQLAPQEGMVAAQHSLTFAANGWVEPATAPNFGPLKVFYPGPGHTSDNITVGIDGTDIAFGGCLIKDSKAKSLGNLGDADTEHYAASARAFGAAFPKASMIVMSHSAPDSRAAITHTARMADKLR

O=C(O)c1ccccn1
IC50: 17.1 µM
